Earlier results in patent publication US11957779B2, “Agent for dyeing keratinous material, containing aminosilicone, pigment and polysaccharide” (Henkel AG & Co. KGaA, priority 2019, dated 2024).

Key:
[1] = 25° C.
[2] = 5% solution in water

Row | Structure (SMILES) | solubility in water [1] | other results
1 | Nc1cc(S(=O)(=O)[O-])cc2cc(S(=O)(=O)[O-])c(N=Nc3ccccc3)c(O)c12.[Na+].[Na+] [Acid Red 33, diantrium salt of 5-amino-4-hydroxy-3-(phenylazo)-naphthalene-2,7-disulphonate] | 2500 µg/mL | 
2 | O=P([O-])(O)O.[K+] [Potassium dihydrogen phosphate] |  | pH value [2]: about 4.4
3 | O=S(=O)([O-])c1ccc(N=Nc2c(O)ccc3ccccc23)cc1.[Na+] [Acid Orange 7, sodium salt of 4-[(2-hydroxy-1-naphthyl)azo]benzene sulphonate] | more than 7 g/L | 
4 | O=C([O-])C1=NN(c2ccc(S(=O)(=O)[O-])cc2)C(=O)C1N=Nc1ccc(S(=O)(=O)[O-])cc1.[Na+].[Na+].[Na+] (stereo not drawn) [Acid Yellow 23, trisodium salt of 4,5-dihydro-5-oxo-1-(4-sulfophenyl)-4-((4-sulfophenyl)azo)-1H-pyrazole-3-carboxylic acid] |  | solubility in water (in words) [1]: highly soluble
5 | CCN(Cc1cccc(S(=O)(=O)[O-])c1)c1ccc(C(=C2C=CC(=[N+](CC)Cc3cccc(S(=O)(=O)[O-])c3)C=C2)c2ccccc2S(=O)(=O)[O-])cc1.[Na+].[Na+] [Acid Blue 9] | more than 20 wt. % | 
6 | O=C([O-])c1c(Cl)c(Cl)c(Cl)c(Cl)c1-c1c2c(Br)cc(=O)c(Br)c-2oc2c(Br)c(O)cc(Br)c12.O=C([O-])c1c(Cl)c(Cl)c(Cl)c(Cl)c1-c1c2c(Br)cc(=O)c(Br)c-2oc2c(Br)c(O)cc(Br)c12.[Na+].[Na+] [Acid Red 92, disodium salt of 3,4,5,6-tetrachloro-2-(1,4,5,8-tetrabromo-6-hydroxy-3-oxoxanthen-9-yl)benzoic acid] | greater than 10 g/L | 
